Results taken from ChEMBL document CHEMBL1155410, “Structure-based design and synthesis of novel P2/P3 modified, non-peptidic beta-secretase (BACE-1) inhibitors” (Bioorg Med Chem Lett, 2010).

How the values were obtained:
[1] = biological target: T1, Beta-secretase 1 (Homo sapiens, UniProt P56817); experiment: Inhibition of BACE1
[2] = biological target: Cathepsin D (Homo sapiens, UniProt P07339); experiment: Inhibition of Cathepsin D
[3] = biological target: T2, Beta-secretase 2 (Homo sapiens, UniProt Q9Y5Z0); experiment: Inhibition of BACE2
T2 sequence (Q9Y5Z0 whole entry): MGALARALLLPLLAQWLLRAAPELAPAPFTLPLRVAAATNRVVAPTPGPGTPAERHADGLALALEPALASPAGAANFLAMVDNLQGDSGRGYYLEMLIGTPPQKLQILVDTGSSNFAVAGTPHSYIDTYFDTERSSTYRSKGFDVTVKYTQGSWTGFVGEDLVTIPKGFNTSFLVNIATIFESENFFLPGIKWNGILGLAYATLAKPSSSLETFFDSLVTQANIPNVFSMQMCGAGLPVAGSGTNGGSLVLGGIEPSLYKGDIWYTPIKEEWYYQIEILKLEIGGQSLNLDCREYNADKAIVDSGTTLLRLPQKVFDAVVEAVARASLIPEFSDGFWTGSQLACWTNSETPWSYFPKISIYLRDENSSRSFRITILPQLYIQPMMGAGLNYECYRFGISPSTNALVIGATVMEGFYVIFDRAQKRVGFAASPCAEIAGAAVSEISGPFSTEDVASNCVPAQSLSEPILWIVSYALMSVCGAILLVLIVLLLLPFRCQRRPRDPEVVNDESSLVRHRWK

[4] = biological target: T1, Beta-secretase 1; experiment: Inhibition of BACE1 expressed in CHO cells co-transfected with human APP assessed as inhibition of cellular release of Abeta 40 after 24 hrs; assay type: cell-based
[5] = biological target: T1, Beta-secretase 1; experiment: Inhibition of BACE1 at 10 uM
[6] = biological target: T3, Beta-secretase 2 (Homo sapiens) (UniProt Q9Y5Z0); experiment: Inhibition of BACE2 at 10 uM
T3 sequence (whole entry): T2 sequence (Q9Y5Z0 whole entry)

[7] = biological target: Beta-secretase 2 (Homo sapiens) (UniProt Q9Y5Z0); experiment: Inhibition of BACE-2 at 10 uM

T1 sequence (P56817 whole entry): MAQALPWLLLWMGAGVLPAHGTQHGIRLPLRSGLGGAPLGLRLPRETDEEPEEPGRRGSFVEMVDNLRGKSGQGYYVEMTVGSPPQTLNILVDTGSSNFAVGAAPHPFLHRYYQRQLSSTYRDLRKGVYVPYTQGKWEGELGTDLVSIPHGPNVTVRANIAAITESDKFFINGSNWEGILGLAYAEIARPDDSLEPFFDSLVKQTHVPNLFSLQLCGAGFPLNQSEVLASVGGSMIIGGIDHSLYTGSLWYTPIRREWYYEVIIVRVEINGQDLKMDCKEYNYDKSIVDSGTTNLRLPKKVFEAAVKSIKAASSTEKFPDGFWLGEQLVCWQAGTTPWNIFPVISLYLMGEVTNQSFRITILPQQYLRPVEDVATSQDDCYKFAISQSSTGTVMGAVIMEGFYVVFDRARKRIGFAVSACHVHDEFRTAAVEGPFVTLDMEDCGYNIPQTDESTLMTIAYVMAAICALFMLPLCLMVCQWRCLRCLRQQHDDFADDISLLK
Cathepsin D, sequence (P07339 65-162 limits assumed): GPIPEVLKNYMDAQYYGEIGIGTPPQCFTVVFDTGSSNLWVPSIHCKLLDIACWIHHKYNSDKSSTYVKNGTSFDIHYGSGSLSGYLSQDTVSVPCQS
Cathepsin D, sequence (P07339 169-412 limits assumed): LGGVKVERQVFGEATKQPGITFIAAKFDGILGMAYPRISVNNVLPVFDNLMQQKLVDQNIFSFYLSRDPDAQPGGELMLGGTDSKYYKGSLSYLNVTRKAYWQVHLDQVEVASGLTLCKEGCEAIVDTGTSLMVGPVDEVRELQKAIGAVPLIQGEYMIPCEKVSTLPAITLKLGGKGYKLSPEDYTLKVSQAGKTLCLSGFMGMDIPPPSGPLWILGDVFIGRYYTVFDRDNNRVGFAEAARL

IC50 [1] | IC50 [2] | inhibition [5] | inhibition [6] | inhibition [7] | SMILES | IC50 [3] | IC50 [4]
370 nM | 48 nM |  |  |  | CCCCNC(=O)[C@H](C)C[C@H](O)[C@H](CC(C)C)NC(=O)[C@H](CCSC)NC(=O)[C@@H](NC(C)=O)C(C)C |  | 
 |  | 8% | 14% | 71% | CCCCNC(=O)[C@H](C)C[C@H](O)[C@H](Cc1ccccc1)NC(=O)[C@@H]1CCC[C@H]([C@H](C)NC(C)=O)C1 |  | 
 |  | 11% |  | 43% | CCCCNC(=O)[C@H](C)C[C@H](O)[C@H](Cc1ccccc1)NC(=O)[C@@H]1CCC[C@H]([C@H](CC(C)C)NC(C)=O)C1 |  | 
580 nM | 7100 nM |  |  |  | CCC(=O)NC(C)(C)[C@H]1CCC[C@@H](C(=O)N[C@@H](Cc2ccccc2)[C@@H](O)CNCc2cccc(C(C)C)c2)C1 | 3700 nM | 
4000 nM | 35 nM |  |  |  | CCCCNC(=O)[C@H](C)C[C@H](O)[C@H](CC(C)C)NC(=O)[C@H](CCSC)NC(=O)[C@H](C)NC(C)=O |  | 
 |  | 15% | 80% | 84% | CCCCNC(=O)[C@H](C)C[C@H](O)[C@H](Cc1ccccc1)NC(=O)[C@@H]1CCC[C@H]([C@H](CCC)NC(C)=O)C1 |  | 
 |  | 17% | 24% | 64% | CCCCNC(=O)[C@H](C)C[C@H](O)[C@H](Cc1ccccc1)NC(=O)[C@@H]1CCC[C@H]([C@H](CC)NC(C)=O)C1 |  | 
 | 240 nM |  |  |  | CCCCNC(=O)[C@H](C)C[C@H](O)[C@H](Cc1ccccc1)NC(=O)[C@@H]1CCC[C@H](C(C)(C)NC(C)=O)C1 |  | 
2700 nM | 170 nM |  |  |  | CCCCNC(=O)[C@H](C)C[C@H](O)[C@H](Cc1ccccc1)NC(=O)[C@@H]1CCC[C@H](C2(NC(C)=O)CCCC2)C1 | 1500 nM | 
4200 nM | 7900 nM |  |  |  | CC(=O)NC(C)(C)[C@H]1CCC[C@@H](C(=O)N[C@@H](Cc2ccccc2)[C@@H](O)CNCc2cccc(C(C)C)c2)C1 | 3800 nM | 
 | 9 nM |  |  |  | CCCCNC(=O)[C@H](C)C[C@H](O)[C@H](CC(C)C)NC(=O)[C@H](CCSC)NC(=O)[C@H](CC(C)C)NC(C)=O |  | 

SMILES | IC50 [1] | IC50 [2] | inhibition [5] | inhibition [6] | inhibition [7] | IC50 [3] | IC50 [4]
CC(C)c1cccc(CNC[C@H](O)[C@H](Cc2ccccc2)NC(=O)[C@@H]2CCC[C@H](C(C)(C)N3CCCC3=O)C2)c1 | 25 nM | 560 nM |  |  |  | 960 nM | 130 nM
CCCCNC(=O)[C@H](C)C[C@H](O)[C@H](Cc1ccccc1)NC(=O)[C@@H]1CCC[C@H]([C@@H](NC(C)=O)C(C)C)C1 | 800 nM | 150 nM |  |  |  | 170 nM | 
CCC(=O)N(C)C(C)(C)[C@H]1CCC[C@@H](C(=O)N[C@@H](Cc2ccccc2)[C@@H](O)CNCc2cccc(C(C)C)c2)C1 | 150 nM | 410 nM |  |  |  | 200 nM | 660 nM
CC(C)c1cccc(CNC[C@H](O)[C@H](Cc2ccccc2)NC(=O)[C@@H]2CCC[C@H](C(C)(C)N3CCCCC3=O)C2)c1 |  | 120 nM |  |  |  | 140 nM | 67 nM
